Assay results from patent US7416741B2, “Copper lowering treatment of inflammatory and fibrotic diseases” (The Regents of the University of Michigan, priority 2002, dated 2008).
Where two headings read alike, the source gives them in different places.

Experiments:
[1] = system: bleomycin mouse model of pulmonary fibrosis; assay: Lung hydroxyproline assay in the bleomycin mouse model of pulmonary fibrosis; type: in vivo; conditions: for Hydroxyproline: sacrifice day 21
From the text: In the bleomycin mouse model, which is known to be dependent upon the TGFβ pathway, the intratracheal administration of bleomycin leads to the development of severe lung inflammation followed by fibrosis in 2-3 weeks, at which time the mice are sacrificed. Fibrosis is quantified in lung tissue by measuring hydroxyproline, a key component of the collagen that is deposited in fibrotic lung.
Mice. Female CBA/J mice at 8-10 weeks of age were from the Jackson Laboratories (Bar Harbor, Me.). These mice weighed an average of 21.4 g at the start of experiments, with a standard deviation of 1.7 g.
Bleomycin treatment. This was undertaken on day 0 by endotracheal instillation through the oral cavity after exposure of the airway by pulling the tongue. Each mouse received 0.001 units of bleomycin (Bristol-Myers, Evansville, Ind.)/gm body weight in 30 μl of sterile saline, while control mice received an equal volume of sterile saline only.
TM treatment experiments. TM was given in 0.25 ml of water by intragastric gavage once daily, in the doses and times indicated in the various studies as described below.
Hydroxyproline assay. The extent of fibrosis was assessed by assaying hydroxyproline content of whole lung homogenates at the time of sacrifice as previously described (M Gharaee-Kermani et al., J. Leukoc. Biol., 64:657-666 [1998]). Results are expressed as μg hydroxyproline/lung (the lung tissue included both lungs).
Hydroxyproline assay. The extent of fibrosis was assessed by assaying hydroxyproline content of whole-lung homogenates at the time of sacrifice as described in Gharaee-Kermani, et al., J. Leukoc. Biol., 64:657-666 (1998). Hydroxyproline was expressed as micrograms of hydroxyproline per mouse lung (the lung tissue included both lungs).

rats = conditions: cited from earlier work
sheep = conditions: cited from earlier work
[2] = system: carbon tetrachloride (CT) mouse model; assay: Liver hydroxyproline and histology in the CT mouse model; type: in vivo; conditions: Ex 6
Method: The carbon tetrachloride (CT) mouse model produces much more liver fibrosis (cirrhosis) than the Con A model. In this model carbon tetrachloride is injected intraperitoneally twice weekly, and after 12 weeks, a well-established cirrhosis should be present. This can be evaluated histologically, and can be quantitated by measuring liver hydroxyproline, a major amino acid in collagen. The TM was started in TM treated animals at the beginning of week 5 and the animals were sacrificed at week 12.

Aβ40 and Aβ42 = Aβ40 and Aβ42 ELISA in brain homogenates of Tg2576 mice; type: in vivo; conditions: Ex 8, TM 0.7 mg/mouse daily from 9 to 15 months of age
Method: A study is carried out in an mouse model of Alzheimer's disease. The mouse model is the Tg2576 mouse model, as described above in the Description of the Invention and in further detail in Gau et al., 2002 (J Gau et al., Amer. J. Pathology, 160(2):731-738 [2002]; J Q Trojanowski, Amer. J. Pathology, 160(2):409-411 [2002]). These mice begin developing amyloid plaques at about 9 months of age and plaques are well developed by 15 months. The transgenic mice also develop progressive age-dependent cognitive and behavioral abnormalities described in the background.
Forty female Tg2576 mice, aged 3 months, are purchased from Tagonic Inc, and grown until 9 months of age, at which time they are divided into two groups of 20. One group begins treatment with TM at 9 months of age, and are treated until sacrifice at age 15 months. […] Cp is determined by an oxidase method. […] The weight of the mice is determined weekly. […]
After 6 months of treatment with water or TM, all mice in both groups are sacrificed painlessly, and the brains removed and divided sagitally. […] Analysis of amyloid plaque load in mouse brains is determined by light-microscopic semi-quantitative analysis of brain sections. Subtle effects of treatment are measured by a more rigorous quantitative analysis of amyloid plaques in brain sections to detect a significant difference. […]

cancer patients = conditions: clinical phase ½ study of metastatic and advanced cancers; cited from earlier work

In the case of `[SH-].[SH-].[S]=[Mo]=[S]` [TM, tetrathiomolybdate], the Hydroxyproline ([1]; Ex 1 Exp 1, Bleomycin/TM group) is reported as 162 ± 12 μg/lung, the “fibrosis as measured by hydroxyproline assay” value ([1]; Ex 1 Exp 1, TM before bleomycin) is reported as “almost completely abrogated fibrosis” and the Hydroxyproline ([1]; Ex 1 Exp 1, TM only group) is reported as 193 ± 5 μg/lung. For the same compound, the “Hydroxyproline (Mean ± SE)” value ([1]; Ex 1 Exp 2, Bleomycin Group, 0.3 mg TM/mouse/day, day 21) was 232 ± 4 μg hydroxyproline/lung, the “Hydroxyproline (Mean ± SE)” value ([1]; Ex 1 Exp 2, Bleomycin Group, 0.5 mg TM/mouse/day, day 21) was 197 ± 15 μg hydroxyproline/lung and the “Hydroxyproline (Mean ± SE)” value ([1]; Ex 1 Exp 2, Bleomycin Group, 0.7 mg TM/mouse/day, day 21) was 172 ± 22 μg hydroxyproline/lung. For the same compound, the “Hydroxyproline (Mean ± SE)” value ([1]; Ex 1 Exp 2, Bleomycin Group, 0.9 mg TM/mouse/day, day 21) was 157 ± 14 μg hydroxyproline/lung, the “Hydroxyproline (Mean ± SE)” value ([1]; Ex 1 Exp 2, Control Group (Saline only), 0.3 mg TM/mouse/day) was 132 ± 3 μg hydroxyproline/lung and the “Hydroxyproline (Mean ± SE)” value ([1]; Ex 1 Exp 2, Control Group (Saline only), 0.5 mg TM/mouse/day) was 130 ± 5 μg hydroxyproline/lung. The “Hydroxyproline (Mean ± SE)” value ([1]; Ex 1 Exp 2, Control Group (Saline only), 0.7 mg TM/mouse/day) was 152 ± 10 μg hydroxyproline/lung, the “Hydroxyproline (Mean ± SE)” value ([1]; Ex 1 Exp 2, Control Group (Saline only), 0.9 mg TM/mouse/day) was 130 ± 8 μg hydroxyproline/lung and the “protection against bleomycin-induced fibrosis as measured by hydroxyproline accumulation” value ([1]; Ex 1 Exp 2, TM 0.3 to 0.9 mg) was “dose dependent”. The “effect of TM treatment alone on hydroxyproline levels” value ([1]; Ex 1 Exp 2, no bleomycin) was “no effect of TM treatment alone on hydroxyproline levels”, the hydroxyproline production ([1]; Ex 1 Exp 3, TM given before bleomycin or started at day 4 or 7 after, 1.2 then 0.9 mg/mouse/day) was “significant suppression of hydroxyproline production” and the “effect of TM alone on hydroxyproline levels” value ([1]; Ex 1 Exp 3, no bleomycin) was “no effect of TM alone on hydroxyproline levels”. The “lung hydroxyproline levels, bleomycin-induced increase” value ([1]; Ex 2 Exp 2, TM from day 5, day 21) was “completely and significantly inhibited the increase”, the “effects on copper levels (plasma ceruloplasmin, liver and kidney copper)” value (rats; approximately 6 mg of TM per kilogram of diet) was “substantial effects on copper levels” and the anemia (rats; approximately 12 mg of TM per kilogram of diet) was “Mild anemia”. The skeletal lesions (rats; approximately 12 mg of TM) was “one of six animals”, the anemia (rats; approximately 18 mg of TM) was “severe” and the growth rate (rats; approximately 18 mg of TM) was “markedly impaired”. For the same compound, the skeletal lesions (rats; approximately 18 mg of TM) was “all animals had skeletal lesions”, the “tolerability of intravenous TM” value (sheep; copper loaded sheep, 50 or 100 mg 2×weekly for up to 11 weeks) was “tolerated up to 22 injections of TM without clinical problems” and the adverse side effects (sheep; prophylactic use in commercial sheep flocks, over 400 animals) was “no adverse side effects”. For the same compound, the liver histology ([2]; CT/TM treated liver) was “essentially normal”, the “liver fibrosis as evaluated by hydroxyproline” value ([2]; CT/TM, after week 12) was “blocks all fibrosis” and the “mean reduction in Aβ40 and Aβ42 levels in brain homogenates” value (Aβ40 and Aβ42) was “up to 50%”. The “average freedom from progression in evaluable patients” value (cancer patients) was 11 months.
